For this assay, the target named is Urokinase-type plasminogen activator (Homo sapiens, UniProt P00749). Description: Enzyme Assay. The following applies: 24 °C. From the text: Inhibition constant of the compound against Plasminogen activator urokinase

SMILES strings stand for the structures.

`N=C(N)c1ccc(CNC(=O)CNC(=O)[C@@H](CO)NS(=O)(=O)Cc2ccc(CN)cc2)cc1` [US8476306, 6.11] had a Ki of 120 nM.

`N=C(N)c1ccc(CNC(=O)CNC(=O)[C@@H](CO)NS(=O)(=O)Cc2ccncc2)cc1` [US8476306, 6.24]: affinity was put at a Ki of 100 nM. Molecule `N=C(N)c1ccc(CNC(=O)[C@H](CCCCN)NC(=O)[C@@H](CO)NS(=O)(=O)Cc2ccccc2)cc1` [US8476306, 8.1] displayed a Ki of 24 nM. The result for `N=C(N)c1ccc(CNC(=O)[C@H](CCCN=C(N)N)NC(=O)[C@@H](CO)NS(=O)(=O)Cc2ccccc2)cc1` [US8476306, 8.2] reads 8.9 nM.
